The source of these data is patent US20230042936A1, “PYRIDO[2,3-d]PYRIMIDIN-7(8H)-ONES AS CDK INHIBITORS” (PROSENESTAR LLC, priority 2020, published 2023).

For orientation: pIC50 means −log10 of the IC50, conventionally taken in molar units.

pIC50: −log10 of the molar value. Entries after “also recorded” stand apart in the source; their conditions may differ. A value given as a limit tells only on which side of the number the result lay.

Data set [1] in a line: Metabolic stability in hepatocytes. The class given is in vitro ADME. The following applies: human, 60-90 min test.
Data set [2] can be described thus: Metabolic stability in microsomes. As to conditions: mouse, 60-90 min test. Type of data set: in vitro ADME.
The target of data set [3] is CDK9/CycT1 (Homo sapiens, UniProt P50750). The data set is described as follows: Kinase profiling. Type of data set: biochemical. The following applies: 10 semi-logarithmic dilutions from 50 μM, singlicate.
Chain of CDK9/CycT1 (P50750 whole entry): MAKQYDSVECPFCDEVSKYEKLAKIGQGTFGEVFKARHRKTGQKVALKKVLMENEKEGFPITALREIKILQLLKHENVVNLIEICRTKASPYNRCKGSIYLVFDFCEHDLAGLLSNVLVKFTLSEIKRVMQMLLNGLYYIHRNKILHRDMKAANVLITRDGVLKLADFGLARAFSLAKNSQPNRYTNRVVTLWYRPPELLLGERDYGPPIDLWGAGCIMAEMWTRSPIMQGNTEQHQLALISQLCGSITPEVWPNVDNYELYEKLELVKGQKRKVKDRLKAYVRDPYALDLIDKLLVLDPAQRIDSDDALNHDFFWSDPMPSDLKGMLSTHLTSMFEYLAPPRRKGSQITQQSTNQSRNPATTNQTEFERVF
Chain of CDK9/CycT1 (O60563 whole entry partner): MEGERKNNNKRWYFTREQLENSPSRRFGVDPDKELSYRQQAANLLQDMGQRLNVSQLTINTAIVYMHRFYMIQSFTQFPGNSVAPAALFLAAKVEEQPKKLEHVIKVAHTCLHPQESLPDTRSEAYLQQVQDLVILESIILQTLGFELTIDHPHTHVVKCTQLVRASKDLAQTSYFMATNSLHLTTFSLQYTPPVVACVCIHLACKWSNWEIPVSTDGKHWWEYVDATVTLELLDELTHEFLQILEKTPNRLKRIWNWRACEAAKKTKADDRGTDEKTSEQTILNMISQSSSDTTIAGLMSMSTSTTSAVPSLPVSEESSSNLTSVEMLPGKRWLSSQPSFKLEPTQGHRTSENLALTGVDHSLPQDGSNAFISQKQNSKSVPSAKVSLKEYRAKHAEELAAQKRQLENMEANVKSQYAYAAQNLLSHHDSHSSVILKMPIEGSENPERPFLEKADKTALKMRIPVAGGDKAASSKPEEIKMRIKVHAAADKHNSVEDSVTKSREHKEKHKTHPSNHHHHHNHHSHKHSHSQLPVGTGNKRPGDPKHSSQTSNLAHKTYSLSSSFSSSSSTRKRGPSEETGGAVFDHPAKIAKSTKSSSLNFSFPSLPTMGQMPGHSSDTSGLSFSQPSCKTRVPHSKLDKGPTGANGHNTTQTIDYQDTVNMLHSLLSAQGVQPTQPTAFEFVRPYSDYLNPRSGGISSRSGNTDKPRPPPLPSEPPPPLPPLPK
Data set [4] addresses CDK8/CycC (Homo sapiens, UniProt P49336). Description: Kinase profiling. The class given is biochemical. The following applies: 10 semi-logarithmic dilutions from 50 μM, singlicate.
In data set [5] the target is CDK2/CycA2 (Homo sapiens, UniProt P24941). The data set is described as follows: Kinase profiling. The class given is biochemical. The following applies: 10 semi-logarithmic dilutions from 50 μM, singlicate.
In data set [6] the target is T1, AKT1 aa1-480 (Homo sapiens, UniProt P31749).
T1 construct: AKT1 aa1-480
T1 sequence (P31749 whole entry, the tested form may be a part): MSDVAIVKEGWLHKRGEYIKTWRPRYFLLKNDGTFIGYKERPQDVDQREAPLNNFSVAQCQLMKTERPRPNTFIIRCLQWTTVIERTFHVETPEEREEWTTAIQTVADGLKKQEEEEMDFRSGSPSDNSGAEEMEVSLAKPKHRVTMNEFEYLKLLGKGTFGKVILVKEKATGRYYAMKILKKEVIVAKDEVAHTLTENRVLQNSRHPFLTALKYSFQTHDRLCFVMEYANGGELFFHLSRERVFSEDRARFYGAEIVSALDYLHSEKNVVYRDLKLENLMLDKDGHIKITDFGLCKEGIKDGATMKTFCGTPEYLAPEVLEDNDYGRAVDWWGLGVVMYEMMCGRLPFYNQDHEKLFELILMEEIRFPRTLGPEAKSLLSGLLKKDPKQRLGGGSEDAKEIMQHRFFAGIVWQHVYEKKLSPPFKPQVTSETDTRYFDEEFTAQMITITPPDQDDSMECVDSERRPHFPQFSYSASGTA
Description: Kinase profiling. The following applies: 10 semi-logarithmic dilutions from 50 μM, singlicate. Type of data set: biochemical.

The target in data set [7] is CDK4/CycD3 (Homo sapiens, UniProt P11802). Description: Kinase profiling. Type of data set: biochemical. As to conditions: 10 semi-logarithmic dilutions from 50 μM, singlicate.
Chain of CDK4/CycD3 (P11802 whole entry): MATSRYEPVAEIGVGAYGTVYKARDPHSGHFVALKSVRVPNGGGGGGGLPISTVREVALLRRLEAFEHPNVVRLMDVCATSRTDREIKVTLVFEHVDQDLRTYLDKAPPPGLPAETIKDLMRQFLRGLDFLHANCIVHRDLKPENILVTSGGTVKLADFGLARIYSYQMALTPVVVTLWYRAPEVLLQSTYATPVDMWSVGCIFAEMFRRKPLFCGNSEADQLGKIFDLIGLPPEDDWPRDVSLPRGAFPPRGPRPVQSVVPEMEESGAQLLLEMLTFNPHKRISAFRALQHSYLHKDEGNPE
Chain of CDK4/CycD3 (P30281 whole entry partner): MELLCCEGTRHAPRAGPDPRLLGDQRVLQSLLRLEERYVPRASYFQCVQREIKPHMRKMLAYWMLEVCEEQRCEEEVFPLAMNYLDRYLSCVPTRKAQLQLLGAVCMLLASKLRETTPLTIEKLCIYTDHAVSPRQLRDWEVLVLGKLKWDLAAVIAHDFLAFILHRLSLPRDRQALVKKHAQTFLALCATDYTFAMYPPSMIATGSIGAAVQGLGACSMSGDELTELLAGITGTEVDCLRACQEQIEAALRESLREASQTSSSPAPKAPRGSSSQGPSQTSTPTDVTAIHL
The target of data set [8] is T2, DYRK2 (Homo sapiens, UniProt Q92630).
T2 sequence (Q92630 1-601): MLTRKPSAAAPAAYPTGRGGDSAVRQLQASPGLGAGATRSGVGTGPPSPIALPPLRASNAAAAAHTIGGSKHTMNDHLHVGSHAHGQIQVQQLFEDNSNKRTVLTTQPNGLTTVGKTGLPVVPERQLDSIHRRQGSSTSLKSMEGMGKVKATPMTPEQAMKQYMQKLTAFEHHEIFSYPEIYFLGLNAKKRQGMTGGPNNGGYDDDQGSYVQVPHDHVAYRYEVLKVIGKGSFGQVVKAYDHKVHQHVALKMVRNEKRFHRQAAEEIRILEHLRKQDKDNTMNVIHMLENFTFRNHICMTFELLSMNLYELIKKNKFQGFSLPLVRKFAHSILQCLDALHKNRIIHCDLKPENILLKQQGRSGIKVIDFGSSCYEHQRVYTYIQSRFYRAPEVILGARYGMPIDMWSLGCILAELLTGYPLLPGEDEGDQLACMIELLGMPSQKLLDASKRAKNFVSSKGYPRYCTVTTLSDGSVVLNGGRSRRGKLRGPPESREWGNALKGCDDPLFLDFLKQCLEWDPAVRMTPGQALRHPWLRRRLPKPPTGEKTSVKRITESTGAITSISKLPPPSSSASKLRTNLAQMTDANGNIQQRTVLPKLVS
The data set is described as follows: Kinase profiling. Type of data set: biochemical. As to conditions: 10 semi-logarithmic dilutions from 50 μM, singlicate; read-out: IC50 DYRK2.

A short description of data set [9]: Summary of solubility, metabolic stability and permeability.
Data set [10] deals with CDK5/p25NCK (Homo sapiens, UniProt Q00535). The data set is described as follows: Kinase profiling. Type of data set: biochemical. As to conditions: 10 semi-logarithmic dilutions from 50 μM, singlicate.
Chain of CDK5/p25NCK (Q00535 whole entry): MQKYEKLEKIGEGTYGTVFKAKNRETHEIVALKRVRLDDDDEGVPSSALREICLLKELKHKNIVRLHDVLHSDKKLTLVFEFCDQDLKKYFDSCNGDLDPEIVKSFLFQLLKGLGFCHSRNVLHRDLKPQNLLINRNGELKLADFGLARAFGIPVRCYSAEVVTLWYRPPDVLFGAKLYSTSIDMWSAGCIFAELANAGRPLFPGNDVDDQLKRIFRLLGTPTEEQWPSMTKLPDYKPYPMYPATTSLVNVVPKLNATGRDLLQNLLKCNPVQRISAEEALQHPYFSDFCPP
Chain of CDK5/p25NCK (Q15078 99-307 partner limits assumed): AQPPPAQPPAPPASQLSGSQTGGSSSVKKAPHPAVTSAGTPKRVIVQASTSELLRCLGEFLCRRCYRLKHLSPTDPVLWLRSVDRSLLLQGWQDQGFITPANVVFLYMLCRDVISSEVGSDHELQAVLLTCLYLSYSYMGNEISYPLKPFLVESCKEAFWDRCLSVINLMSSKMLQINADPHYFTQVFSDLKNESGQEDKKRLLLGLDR
The target of data set [11] is CDK9/CycK (Homo sapiens, UniProt P50750). Description: Kinase profiling. The following applies: 10 semi-logarithmic dilutions from 50 μM, singlicate. Type of data set: biochemical.
Chain of CDK9/CycK (P50750 whole entry): as the sequence (P50750 whole entry) above
Chain of CDK9/CycK (O75909 whole entry partner): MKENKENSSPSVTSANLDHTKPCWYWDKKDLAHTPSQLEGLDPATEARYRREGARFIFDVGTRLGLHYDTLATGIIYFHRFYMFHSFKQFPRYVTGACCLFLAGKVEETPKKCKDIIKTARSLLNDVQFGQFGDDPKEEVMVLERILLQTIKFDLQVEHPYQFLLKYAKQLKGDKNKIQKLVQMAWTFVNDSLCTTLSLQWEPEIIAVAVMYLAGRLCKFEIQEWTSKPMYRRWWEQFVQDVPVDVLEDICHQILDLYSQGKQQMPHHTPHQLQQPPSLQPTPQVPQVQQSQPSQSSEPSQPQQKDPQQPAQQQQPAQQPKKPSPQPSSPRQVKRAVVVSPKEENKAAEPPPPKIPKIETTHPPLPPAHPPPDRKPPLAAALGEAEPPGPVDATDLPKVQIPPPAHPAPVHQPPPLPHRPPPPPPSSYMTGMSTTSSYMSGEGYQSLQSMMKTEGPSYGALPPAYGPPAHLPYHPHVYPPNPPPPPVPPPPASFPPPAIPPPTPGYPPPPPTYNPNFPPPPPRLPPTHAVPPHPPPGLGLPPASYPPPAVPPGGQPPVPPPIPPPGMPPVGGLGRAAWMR
The test system of data set [12] is MDA-MB-231 human breast cancer cells. Description: Cell cycle analysis (DNA content, flow cytometry). Type of data set: cell-based. As to conditions: GI50 concentration; FIG. 1. (In general: A flow cytometer gives signals particle by particle.)
Data set [13] has as its target CDK3/CycE1 (Homo sapiens, UniProt Q00526). The data set is described as follows: Kinase profiling. Type of data set: biochemical. As to conditions: 10 semi-logarithmic dilutions from 50 μM, singlicate.
Data set [14] has as its target PCTAIRE1/CycY (Homo sapiens, UniProt Q00536). Description: Kinase profiling. The class given is biochemical. As to conditions: 10 semi-logarithmic dilutions from 50 μM, singlicate.
Data set [15] deals with MDA-MB-231-derived xenografts. The data set is described as follows: Tumor xenografts. The class given is in vivo, Athymic nude mice. As to conditions: 100 mg/Kg intraperitoneally twice per week, two weeks. The protocol:
For histological analysis, mice tissues and human xenografts were fixed in 10%-buffered formalin (Sigma) and embedded in paraffin wax. Sections of 3- or 5-μm thickness were stained with haematoxylin and eosin. Additional immunohistochemical examination was performed using a specific antibody against phospho-Rb (Ser807/811; Cell Signaling) or Ki67 (DAKO).
DMSO, PS004, PS006 and PS009 were diluted in sesame oil and administered intraperitoneally twice per week during two weeks at 100 mg/Kg. […] Tumor growth was monitored using caliper measurements and tumor size was estimated using the following formula: Tumor volume (mm^3)=d^2·D/2 where d and D, are the shortest and longest diameter in mm, respectively. After completing the treatment, mice were sacrificed and tumors were extracted, weighed, and fixed for histological analysis.
The therapeutic effect of the subject compounds was then tested by treating mice previously injected subcutaneously with MDA-MB-231 breast cancer cells. […] The dose amount of 100 mg/kg dosage in these cases was administered at a frequency of two injections per week for the total of two weeks of treatment.

The test system of data set [16] is human cancer cell lines (MDA-MB-231, U87-MG, H460) and MCF10. Description: Suppression of proliferation of human cancer cell lines, results in words. The class given is cell-based. The following applies: summary of Table 3. As for the experimental part:
48 h later cells were fixed with PFA 4% for 15 minutes, stained with 10 μg/ml Hoechst 33342 (Molecular Probes, Thermo Fisher) for 30 minutes and washed twice with PBS. Cells were imaged in a high content screening system (Opera Phoenix™, Perkin Elmer) using a 20× dry objective (30 fields/well). Cell counts were determined by the Opera software (Perkin Elmer) and data were further processed with SPSS software. GI50 was calculated by estimating the absolute IC50 using dose-response inhibition tool in Prism6 (Graphpad Software Inc.).
The cell growth inhibitions of the subject compounds were tested in multiple human cancer cell lines with wild-type Retinoblastoma protein: MDA-MB-231 (breast), U87-MG (glioblastoma), H460 (lung); and MCF10 (as an example of non-transformed human cells) and mutant cells.

Chain of PCTAIRE1/CycY (Q00536 whole entry, species assumed): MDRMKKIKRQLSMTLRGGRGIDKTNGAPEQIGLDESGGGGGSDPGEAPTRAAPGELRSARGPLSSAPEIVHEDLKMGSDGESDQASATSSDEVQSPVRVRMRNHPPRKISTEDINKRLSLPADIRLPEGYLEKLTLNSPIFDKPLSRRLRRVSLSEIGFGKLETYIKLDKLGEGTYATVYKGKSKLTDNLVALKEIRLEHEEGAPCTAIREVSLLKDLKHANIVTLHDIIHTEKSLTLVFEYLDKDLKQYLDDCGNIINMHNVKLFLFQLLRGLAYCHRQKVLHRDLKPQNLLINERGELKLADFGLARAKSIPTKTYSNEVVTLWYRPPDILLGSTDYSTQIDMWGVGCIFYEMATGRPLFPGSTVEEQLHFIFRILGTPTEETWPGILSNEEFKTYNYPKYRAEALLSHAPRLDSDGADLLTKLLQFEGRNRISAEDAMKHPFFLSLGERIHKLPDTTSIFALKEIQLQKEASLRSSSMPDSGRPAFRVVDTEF
Chain of PCTAIRE1/CycY (Q8ND76 whole entry partner, species assumed): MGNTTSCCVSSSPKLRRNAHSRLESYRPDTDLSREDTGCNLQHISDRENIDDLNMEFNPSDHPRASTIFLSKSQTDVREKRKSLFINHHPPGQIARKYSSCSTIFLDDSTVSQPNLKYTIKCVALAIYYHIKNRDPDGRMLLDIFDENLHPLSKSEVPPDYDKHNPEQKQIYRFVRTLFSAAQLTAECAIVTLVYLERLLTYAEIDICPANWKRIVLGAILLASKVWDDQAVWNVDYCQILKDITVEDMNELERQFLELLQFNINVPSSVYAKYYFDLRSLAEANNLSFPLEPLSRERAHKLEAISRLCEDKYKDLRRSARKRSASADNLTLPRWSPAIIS
Chain of CDK8/CycC (P49336 whole entry): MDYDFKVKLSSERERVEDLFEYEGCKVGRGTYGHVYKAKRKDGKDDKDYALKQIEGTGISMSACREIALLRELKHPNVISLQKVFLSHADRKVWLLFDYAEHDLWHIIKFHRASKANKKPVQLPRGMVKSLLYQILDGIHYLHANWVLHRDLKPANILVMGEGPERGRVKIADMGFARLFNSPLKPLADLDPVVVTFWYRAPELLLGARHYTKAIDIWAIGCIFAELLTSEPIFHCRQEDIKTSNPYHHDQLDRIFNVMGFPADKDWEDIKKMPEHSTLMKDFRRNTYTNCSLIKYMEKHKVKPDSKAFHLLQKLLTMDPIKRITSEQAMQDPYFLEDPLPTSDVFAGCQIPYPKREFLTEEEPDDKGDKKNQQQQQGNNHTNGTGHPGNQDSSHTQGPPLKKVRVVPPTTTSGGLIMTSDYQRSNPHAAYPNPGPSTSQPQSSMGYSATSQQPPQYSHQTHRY
Chain of CDK8/CycC (P24863 whole entry partner): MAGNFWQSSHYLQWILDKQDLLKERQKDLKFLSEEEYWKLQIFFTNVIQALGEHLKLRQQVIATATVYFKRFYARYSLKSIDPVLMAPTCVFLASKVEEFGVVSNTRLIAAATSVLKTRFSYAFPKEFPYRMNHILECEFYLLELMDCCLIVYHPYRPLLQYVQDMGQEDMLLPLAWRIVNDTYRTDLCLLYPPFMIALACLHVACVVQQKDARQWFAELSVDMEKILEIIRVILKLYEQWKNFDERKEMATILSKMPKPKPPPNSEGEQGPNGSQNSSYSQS

Turning to `CC(O)COC1CCN(c2ccc(Nc3ncc4ccc(=O)n([C@@H]5CC6CCC5C6)c4n3)cc2)CC1` (stereo partly drawn) [PS006, 8-((2R)-bicyclo[2.2.1]heptan-2-yl)-2-((4-(4-(2-hydroxypropoxy)piperidin-1-yl)phenyl)amino)pyrido[2,3-d]pyrimidin-7(8H)-one], the hepatocyte CLint in data set [1] (read-out: Metabolic stability, Human hepatocytes: Clearance) is 49 µL/min/1e6 cells. Besides, the half-life came to 28.3 min in data set [1] (read-out: Metabolic stability, Human hepatocytes: t1/2) and 7.5 min in data set [2] (read-out: Metabolic stability, Mouse microsomes: t1/2). Besides, in [2] (read-out: Metabolic stability, Mouse microsomes: Clearance), the microsomal CLint amounted to 185 µL/min/mg. Moreover, the pIC50 in data set [3] is 6.58; in [4], 6.99; in data set [5] it was 6.69; in data set [6] it was less than 4.30; in data set [7], 7.33; in data set [8], less than 4.30. The pIC50 is 5.84 in data set [10], 6.83 in [11], 6.51 in [13] and 5.42 in data set [14]. Also, the “Summary: efflux” value in data set [9] is “permeable/No”. Moreover, the “Summary: permeability” value in data set [9] is listed as “High”. Also, the “Summary: solubility” value in [9] is “insoluble; also recorded: Insoluble,”. In data set [9], the “Summary: stability” value is listed as “highly unstable”. Further, in data set [12], the “cell cycle arrest by DNA content” value is given as “induced G2/M arrest; also recorded: arrested cells in G2/M phases”. The “phospho-RB levels in the xenografts” value in [15] (FIG. 9A) was “significantly reduced”. In [15] (vs DMSO, FIG. 8A), the tumor weight entry is “did not exert any antitumoral effect”. Also, the tumor growth entry in data set [15] (vs DMSO, FIG. 8B) is “did not exert any antitumoral effect”. In addition, the “suppression of cell proliferation” value in data set [16] is listed as “potent cell growth inhibition”.
